The values that follow are results of earlier work, collected in patent US20180030541A1, “METHOD FOR PREDICTING SENSITIVITY TO VASCULAR ENDOTHELIAL GROWTH FACTOR RECEPTOR INHIBITOR” (CBSBIOSCIENCE INC., priority 2014, published 2018).

The data set concerns hepatocellular carcinoma. The settings on record: drug approved for treating hepatocellular carcinoma; cancer patients.

The structures appear in SMILES notation.

`CNC(=O)c1cc(Oc2ccc(NC(=O)Nc3ccc(Cl)c(C(F)(F)F)c3)cc2)ccn1` [Nexavar, Sorafenib]: the side effects result was “very high” and the treatment rate is on record as 2-3%.
